# Experimental data from publication PMC3969230, “Structural and functional characterization of NanU, a novel high-affinity sialic acid-inducible binding protein of oral and gut-dwelling Bacteroidetes species” (Biochemical Journal, 2014).
# Where “and” joins values, the source holds several entries; their conditions need not be identical. Identical values can stand only once.
# Experiments:
# NanU = experiment: Steady-state tryptophan fluorescence titration, NanU (species not told apart); type: binding; conditions: for binding to NanU (in words): tryptophan fluorescence quenching
# Description: (§1) Proteins were diluted in 25 mM sodium phosphate buffer, pH 7.4, to a final concentration of 0.5 μM and incubated at 25°C for 5 min before substrate titration. The quenching of intrinsic tryptophan fluorescence was measured at 25°C with constant stirring in a 104F-QS quartz fluorescence semi-micro cell (Hellma Analytics) using a Varian Cary Eclipse spectrofluorometer. The excitation and emission wavelengths were 295 nm (5 nm slit width) and 330 nm (10 nm slit width) respectively. Corrections for background fluorescence changes due to dilution effects with the stepwise addition of ligands were made by buffer titrations. Analysis and curve fitting of titration data were performed in Prism 5 (GraphPad Software), with the equilibrium dissociation constants (Kd) for one site-specific binding calculated using eqn (1): (1) Y=Bmax×X/(Kd+X) where X is the final concentration of ligand, Y is the percentage increase in protein quenching in relation to the protein-only fluorescence signal and Bmax is the extrapolated maximum specific binding.
# SusD = tested on: SusD; set-up: method as in PMID 18611383; conditions: non-physiological ligand; cited from earlier work
# BF-NanU (BF1720) = BF-NanU (BF1720) (Bacteroides fragilis, UniProt Q5LEN2); experiment: Steady-state tryptophan fluorescence titration, BF-NanU; type: binding
# Description: as §1
# TF-NanU (TF0034) = TF-NanU (TF0034) (Tannerella forsythia, UniProt G8UIQ0); experiment: Steady-state tryptophan fluorescence titration, TF-NanU; conditions: 0.5 μM protein, 25 mM sodium phosphate pH 7.4, 25°C, one-site specific binding
# Description: as §1
# BT1043 = tested on: BT1043; set-up: method as in PMID 19191477; conditions: non-physiological ligand; cited from earlier work
# [1] = biological target: lectin domain of the Vibrio cholerae sialidase; set-up: method as in PMID 15226294; conditions: read-out: affinity; cited from earlier work
# SiaP = biological target: SiaP; set-up: method as in PMID 16702222; conditions: cited from earlier work
# [2] = 0.5 μM protein, 25 mM sodium phosphate pH 7.4, 25°C, one-site specific binding
# Chain of TF-NanU (TF0034) (G8UIQ0 entry or part of it): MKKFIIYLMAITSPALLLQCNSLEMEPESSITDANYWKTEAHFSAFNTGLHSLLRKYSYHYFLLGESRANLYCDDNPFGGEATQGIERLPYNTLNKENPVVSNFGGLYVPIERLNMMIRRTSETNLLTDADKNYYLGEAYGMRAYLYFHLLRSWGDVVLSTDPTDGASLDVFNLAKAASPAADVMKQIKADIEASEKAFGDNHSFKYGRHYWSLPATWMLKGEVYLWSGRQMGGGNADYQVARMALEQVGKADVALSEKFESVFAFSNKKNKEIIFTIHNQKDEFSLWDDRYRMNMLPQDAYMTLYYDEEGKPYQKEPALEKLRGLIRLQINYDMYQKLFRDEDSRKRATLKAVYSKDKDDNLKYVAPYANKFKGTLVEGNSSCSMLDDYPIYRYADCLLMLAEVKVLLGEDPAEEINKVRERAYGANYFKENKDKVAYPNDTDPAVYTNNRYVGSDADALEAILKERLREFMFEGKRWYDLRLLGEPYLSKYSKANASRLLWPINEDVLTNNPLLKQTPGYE
# Chain of BF-NanU (BF1720) (Q5LEN2 entry or part of it): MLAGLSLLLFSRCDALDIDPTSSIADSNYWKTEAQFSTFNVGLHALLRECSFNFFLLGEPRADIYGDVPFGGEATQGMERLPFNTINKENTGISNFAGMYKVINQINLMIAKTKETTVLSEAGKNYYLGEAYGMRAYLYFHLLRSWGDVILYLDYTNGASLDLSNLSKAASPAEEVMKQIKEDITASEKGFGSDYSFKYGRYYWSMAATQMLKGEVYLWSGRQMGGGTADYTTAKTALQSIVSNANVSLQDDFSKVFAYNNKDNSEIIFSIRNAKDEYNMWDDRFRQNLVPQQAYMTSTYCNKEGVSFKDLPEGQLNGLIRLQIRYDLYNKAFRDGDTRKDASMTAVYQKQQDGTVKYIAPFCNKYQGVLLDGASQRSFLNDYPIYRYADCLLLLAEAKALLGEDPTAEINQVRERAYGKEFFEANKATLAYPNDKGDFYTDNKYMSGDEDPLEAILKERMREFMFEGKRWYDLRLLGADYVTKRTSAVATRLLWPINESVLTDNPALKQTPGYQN
Compound,binding to NanU (in words) (NanU),Kd (BF-NanU (BF1720); [2]),Kd (TF-NanU (TF0034)),further results
"CCOC(=O)C1=C[C@@H](OC(CC)CC)[C@H](NC(C)=O)[C@@H](N)C1 [Oseltamivir, oseltamivir]",No binding,–,–,binding to NanU (in words) (NanU; listed as oseltamivir): neither
cyclodextrin,–,–,–,binding interaction (range in words) (SusD): in the hundreds of μM range
"CC(=O)N[C@H]1[C@H]([C@H](O)[C@H](O)CO)OC(C(=O)O)=C[C@@H]1O [Neu5Ac2en, 2-deoxy-2,3-didehydro-Neu5Ac]",–,5600 nM and 5550 nM,8300 nM and 8290 nM,–
sialyl-lactose,does not bind,–,–,–
CC(=O)N[C@H]1C(O)O[C@H](CO)[C@@H](O[C@@H]2O[C@H](CO)[C@H](O)[C@H](O)[C@H]2O)[C@@H]1O (stereo partly shown) [N-acetyl lactosamine],–,–,–,binding interaction (range in words) (BT1043): in the mM range
"CC(=O)N[C@H]1[C@H]([C@H](O)[C@H](O)CO)OC(O)(C(=O)O)C[C@@H]1O (stereo partly shown) [Neu5Ac, 5-N-acetylneuraminic acid]",–,397 nM and 400 nM,425 nM and 400 nM,"Kd (NanU; NanU from two Bacteroidetes species, approximate summary value): ~400 nM; Kd [1]: 30000 nM; Kd (SiaP): 120 nM; Kd (BF-NanU (BF1720); BF-NanU expressed and purified from cells grown in M9 medium plus glycerol (results not shown)): 409 nM"
"CC(=O)N[C@H]1[C@H]([C@H](O)[C@H](O)CO)OC(C(=O)O)=C[C@@H]1N=C(N)N [Zanamivir, zanamivir]",–,900 nM and 905 nM,1100 nM and 1130 nM,–
"O=C(CO)N[C@H]1[C@H]([C@H](O)[C@H](O)CO)O[C@](O)(C(=O)O)C[C@@H]1O [Neu5Gc, N-glycolylneuraminic acid]",–,2000 nM and 1670 nM and 1700 nM,1700 nM and 1990 nM and 2000 nM,affinity lower than Neu5Ac (fold) (NanU; Neu5Gc compared with Neu5Ac): 5 fold
CC(=O)NC1C(O)CC(OC2C(O)C(CO)OC(OC3C(CO)OC(O)C(O)C3O)C2O)(C(=O)O)OC1C(O)C(O)CO (stereo not shown) [3′-siallyl-lactose],did not display any interaction,–,–,–
"CC(=O)N[C@H]1NC[C@H](C(=O)O)[C@H](O)[C@@H]1O [Siastatin B, siastatin B]",No binding,–,–,binding to NanU (in words) (NanU; listed as siastatin B): neither
CC(=O)NC1C(O)CC(OCC2OC(OC3C(CO)OC(O)C(O)C3O)C(O)C(O)C2O)(C(=O)O)OC1C(O)C(O)CO (stereo not shown) [6′-siallyl-lactose],did not display any interaction,–,–,–
